Usually EC50 stands for the concentration at which the effect is half-maximal.

Bounds are passed on as bounds.

This assay deals with Glycogen synthase kinase-3 beta (Homo sapiens, UniProt P49841). In words: concentration-response blocking of human GSK3B – biochemical, luminescence, cell-free homogeneous, retest, dose response (AID 434954).
Chain of Glycogen synthase kinase-3 beta (P49841 whole entry): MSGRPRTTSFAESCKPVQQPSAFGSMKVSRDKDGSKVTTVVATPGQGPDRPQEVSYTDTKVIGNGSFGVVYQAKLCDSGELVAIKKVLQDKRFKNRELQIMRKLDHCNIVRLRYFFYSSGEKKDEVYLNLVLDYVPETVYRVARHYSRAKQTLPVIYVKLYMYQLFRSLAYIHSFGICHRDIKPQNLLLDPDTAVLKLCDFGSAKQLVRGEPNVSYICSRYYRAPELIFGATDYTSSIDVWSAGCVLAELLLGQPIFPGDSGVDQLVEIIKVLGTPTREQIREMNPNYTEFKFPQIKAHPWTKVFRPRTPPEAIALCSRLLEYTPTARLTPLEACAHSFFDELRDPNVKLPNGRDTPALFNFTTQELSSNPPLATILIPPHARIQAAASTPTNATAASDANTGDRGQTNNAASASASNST
With `Cc1[nH]n(-c2ccccc2)c(=O)c1/C=N/NC(=O)COc1ccccc1[N+](=O)[O-]` [MLS000592191], the EC50 was over 300 µM.

Turning to `Fc1ccc(CSc2ccc3nnc(-c4cccs4)n3n2)cc1` [SMR000236997], the EC50 is over 300 µM.

`CCOC(=O)N1CCN(S(=O)(=O)c2cc(Br)cc3c2N(C(=O)C2CC2)CC3)CC1` [ethyl 4-[(5-bromanyl-1-cyclopropylcarbonyl-2,3-dihydroindol-7-yl)sulfonyl]piperazine-1-carboxylate] displayed an EC50 of over 300 µM.

Compound `CC(C(=O)NC1CCCCCC1)n1cc([N+](=O)[O-])cn1` (stereo not drawn) [N-cycloheptyl-2-(4-nitro-1-pyrazolyl)propanamide] registered an EC50 of over 300 µM.

Compound `COc1ccc(N(C(=O)c2ccncc2)S(=O)(=O)c2cccc([N+](=O)[O-])c2)cc1` [SMR000668685] registered an EC50 of over 300 µM.

The compound `Cc1ccccc1-c1nnc(SCc2ccccc2F)o1` [2-[(2-fluorobenzyl)thio]-5-(2-methylphenyl)-1,3,4-oxadiazole] returned an EC50 of over 300 µM.

In the case of `COc1cccc(C(=O)c2sc(NC(C)C)nc2N)c1` [MLS000036929], the EC50 was found to be 0.33 µM.

`CC(=O)NCC1COc2ccccc2O1` (stereo not drawn) [N-(2,3-dihydro-1,4-benzodioxin-3-ylmethyl)ethanamide] registered an EC50 of over 300 µM.

Compound `O=C(NNC(=O)C1CC1)c1cc2cc3ccccc3nc2s1` [MLS000763570] came in with an EC50 of over 300 µM.

As to `CCC(CC)NC(=O)COC(=O)c1ccc2c(c1)C(=O)N(Cc1ccco1)C2=O` [2-(2-furanylmethyl)-1,3-dioxo-5-isoindolecarboxylic acid [2-oxo-2-(pentan-3-ylamino)ethyl] ester], the concentration for a half-maximal effect (EC50) was over 300 µM.

Compound `COc1ccc(C2CC(=O)c3c(O)cc(O)cc3O2)c(CC=C(C)C)c1OC` (stereo not drawn) [antiarone F] had an EC50 of over 300 µM.

`CC(=O)Nc1ccc(S(=O)(=O)N(Cc2cccnc2)Cc2cc3ccccc3nc2O)cc1` [N-[4-[(2-oxidanylidene-1H-quinolin-3-yl)methyl-(pyridin-3-ylmethyl)sulfamoyl]phenyl]ethanamide]: the EC50 was over 300 µM.

In the case of `CC(=O)CSc1nc(-c2cccs2)c(C#N)c(=O)[nH]1` [4-oxidanylidene-2-(2-oxidanylidenepropylsulfanyl)-6-thiophen-2-yl-1H-pyrimidine-5-carbonitrile], the EC50 was over 300 µM.

Regarding `Cc1ccccc1CSc1nnc(-c2ccncc2)o1` [2-[(2-methylphenyl)methylsulfanyl]-5-pyridin-4-yl-1,3,4-oxadiazole], the EC50 is 22.1 µM.

On to `COc1ccc2cc(C(N)=O)c(=NNC(=O)c3ccco3)oc2c1` [SMR000236446], for which the EC50 is over 300 µM.

With `COc1ccc(S(=O)(=O)Nc2c(C(=O)O)[nH]c3ccc(OC)cc23)c(OC)c1` [SMR000650153], the EC50 is 1.15 µM. That is a single-digit micromolar value.

Consider `CCC(C)Nc1nc(N)c([N+](=O)[O-])c(NCc2ccccc2)n1` (stereo not drawn), for which the EC50 came to 9.62 µM.

The compound `COc1ccc(-c2nc(-c3ccccc3)nc(Cl)c2C#N)cc1` [4-chloranyl-6-(4-methoxyphenyl)-2-phenyl-pyrimidine-5-carbonitrile] yielded an EC50 of over 300 µM.

For the compound `CCCc1cc(=O)oc2cc(C)cc(O)c12` [5-hydroxy-7-methyl-4-propyl-1-benzopyran-2-one], the concentration giving a half-maximal response (EC50) is over 300 µM.

Take `CCc1ccc(C2NC(=S)N=C3CC(C)(C)CC(=O)C32)cc1` (stereo not drawn) [MLS000720309]: the EC50 is over 300 µM.

As to `CC1(C)CC(=O)C2C(=Nc3ccccc3NC2c2cccs2)C1` (stereo not drawn) [9,9-dimethyl-6-thiophen-2-yl-6,8,10,11-tetrahydro-5H-benzo[b][1,4]benzodiazepin-7-one], the EC50 is over 300 µM.

Consider `O=C(Cc1ccc(Cl)cc1)Nc1ncc([N+](=O)[O-])s1` [2-(4-chlorophenyl)-N-(5-nitro-1,3-thiazol-2-yl)ethanamide], for which the EC50 was found to be 30.4 µM.

Regarding `CC(C)=CCc1c(O)ccc(C2COc3c(CC=C(C)C)c(O)cc(O)c3C2=O)c1O` (stereo not drawn) [3',8-diprenyldalbergioidin], the EC50 is over 300 µM.

`CCOC(=O)CNC(=O)CSc1ccc2nnc(-c3cccnc3)n2n1` [ethyl 2-[[2-[(3-pyridin-3-yl-[1,2,4]triazolo[4,3-b]pyridazin-6-yl)sulfanyl]acetyl]amino]acetate]: the EC50 is over 300 µM.

As to `COC1=C/C(=C/c2c(N)n3cc(C)sc3nc2=O)C=CC1=O`, the EC50 is over 300 µM.

Compound `CCn1c(SCC(=O)NNC(=O)c2ccc(C)cc2)nnc1C1CC1` [N'-[2-[(5-cyclopropyl-4-ethyl-1,2,4-triazol-3-yl)sulfanyl]acetyl]-4-methylbenzohydrazide] came in with an EC50 of over 300 µM.

For the compound `CCOC(=O)C1CCN(c2cc(C)nc3ccc(OC)cc23)CC1` [MLS000772886], the EC50 was over 300 µM.

Consider `NNc1nccc(Nc2ccccc2C(=O)O)n1` [2-[(2-hydrazinyl-4-pyrimidinyl)amino]benzoic acid], for which the concentration for a half-maximal effect (EC50) was 2.92 µM. This lies in the single-digit micromolar range.

`CC(C)=CCc1c(O)ccc2c1OC(c1ccc(O)c(O)c1)CC2=O` (stereo not drawn) [2-(3,4-dihydroxyphenyl)-7-hydroxy-8-(3-methylbut-2-enyl)-2,3-dihydrochromen-4-one]: the response was half-maximal at 4.58 µM (EC50).

Consider `COc1cc(C=NNC(=O)COc2ccccc2[N+](=O)[O-])ccc1OC(=O)c1ccco1` [SMR000204365], for which the EC50 is over 300 µM.

Consider `COc1cc(/C=N/NC(=O)c2ccccc2F)ccc1Oc1ccc([N+](=O)[O-])cn1` [MLS000779573], for which the EC50 is over 300 µM.

Consider `CCn1c(SCC(=O)Nc2ccc(N(C)C)cc2)nnc1C1CC1` [SMR000601384], for which the EC50 was over 300 µM.

In the case of `O=C1Nc2cc(C(=O)NCCCN3CCCC3)ccc2S/C1=C\c1ccccc1` [(2Z)-3-oxidanylidene-2-(phenylmethylidene)-N-(3-pyrrolidin-1-ylpropyl)-4H-1,4-benzothiazine-6-carboxamide], the EC50 was found to be 5.9 µM.

As to `CCN1CCN(Cc2c(O)ccc3c2O/C(=C\C=C\c2ccccc2)C3=O)CC1` [SMR000221319], the EC50 was over 300 µM.

In turn, `Cc1cc2oc(=O)cc(Cn3ccnc3)c2cc1O` [6-hydroxy-4-(imidazol-1-ylmethyl)-7-methylchromen-2-one] showed an EC50 of over 300 µM.

On to `CCCN(CCC)Cc1c(C(=O)NN=CCCc2ccccc2)nnn1-c1nonc1N` [1-(4-amino-1,2,5-oxadiazol-3-yl)-5-[(dipropylamino)methyl]-N-(3-phenylpropylideneamino)-4-triazolecarboxamide], for which the response was half-maximal at 7.47 µM (EC50).

The compound `O=NCc1cn(-c2ccccc2)nc1-c1ccccc1` [1,3-diphenyl-4-pyrazolecarboxaldehyde oxime] yielded an EC50 of 26 µM.

In turn, `CCCCC(=O)Nc1nn(CC(C)C)c2nc3ccccc3cc12` [SMR000043369] came in with a 50% effective concentration (EC50) of over 300 µM.

The compound `COc1cc2c(O)c3c(c(-c4ccc5c(c4)OCO5)c2cc1OC)C(=O)OC3` [9-(1,3-benzodioxol-5-yl)-4-hydroxy-6,7-dimethoxy-3H-benzo[f][2]benzofuran-1-one] yielded an EC50 of 4.42 µM.

The compound `O=C(Nc1ccc2c(c1)OCO2)Nc1ccc(F)cc1F` registered an EC50 of over 300 µM.

In the case of `CCn1c(/C=C/N(C)c2ccccc2)[n+](CC)c2cc(Cl)ccc21` [SMR000173749], the EC50 was over 300 µM.

On to `Cc1ccnc(SCCn2c(N3CCOCC3)nc3c2c(=O)[nH]c(=O)n3C)n1` [3-methyl-7-[2-(4-methylpyrimidin-2-yl)sulfanylethyl]-8-morpholin-4-ylpurine-2,6-dione], for which the EC50 is over 300 µM.

For the compound `OC(CNc1nc(-c2cccnc2)nc2ccccc12)c1ccccc1` (stereo not drawn) [SMR000592049], the concentration giving a half-maximal response (EC50) is over 300 µM.

The values above are taken from BindingDB's records for doi:10.7270/Q2TX3CTT (Broad Institute, 2010).
